# Starred links: 1 amine or outer side, 2 acyl side, 3 side chain; linkers in the order of their positions; H or OH if unused. Positions of bridges follow the written chain, without caps; N, C: chain ends. Groups on a side chain read outwards from the residue. Chains are numbered I, II in the order given. No end group written: not given here. *: point of attachment. Phe(Nα-CONH2) = NC(=O)N[C@@H](Cc1ccccc1)C(=O)*; C20 diacid = O=C(O)CCCCCCCCCCCCCCCCCCC(=O)*; C18 diacid = O=C(O)CCCCCCCCCCCCCCCCC(=O)*; C16 diacid = O=C(O)CCCCCCCCCCCCCCC(=O)*; NMe2Phe = CN(C)[C@@H](Cc1ccccc1)C(=O)*; γGlu = O=C(O)[C@H](CCC(=O)[*:2])N[*:1]; X1 = CCN(CC)[C@@H](Cc1ccccc1)C(=O)*; Hydantoyl = NC(=O)NCC(=O)*; AEEA = NCCOCCOCC(=O)O; Me2Gly = CN(C)CC(=O)*; X2 = CCN(CC)CC(=O)*
# How the values were obtained:
# [1] = target: T1, human insulin receptor (IR-A) (Homo sapiens, UniProt P06213); experiment: Insulin receptor affinity, SPA antibody capture assay, 0% HSA; format: binding; conditions: relative to affinity of human insulin
# T1 sequence (P06213 28-746 isoform P06213-2 limits assumed): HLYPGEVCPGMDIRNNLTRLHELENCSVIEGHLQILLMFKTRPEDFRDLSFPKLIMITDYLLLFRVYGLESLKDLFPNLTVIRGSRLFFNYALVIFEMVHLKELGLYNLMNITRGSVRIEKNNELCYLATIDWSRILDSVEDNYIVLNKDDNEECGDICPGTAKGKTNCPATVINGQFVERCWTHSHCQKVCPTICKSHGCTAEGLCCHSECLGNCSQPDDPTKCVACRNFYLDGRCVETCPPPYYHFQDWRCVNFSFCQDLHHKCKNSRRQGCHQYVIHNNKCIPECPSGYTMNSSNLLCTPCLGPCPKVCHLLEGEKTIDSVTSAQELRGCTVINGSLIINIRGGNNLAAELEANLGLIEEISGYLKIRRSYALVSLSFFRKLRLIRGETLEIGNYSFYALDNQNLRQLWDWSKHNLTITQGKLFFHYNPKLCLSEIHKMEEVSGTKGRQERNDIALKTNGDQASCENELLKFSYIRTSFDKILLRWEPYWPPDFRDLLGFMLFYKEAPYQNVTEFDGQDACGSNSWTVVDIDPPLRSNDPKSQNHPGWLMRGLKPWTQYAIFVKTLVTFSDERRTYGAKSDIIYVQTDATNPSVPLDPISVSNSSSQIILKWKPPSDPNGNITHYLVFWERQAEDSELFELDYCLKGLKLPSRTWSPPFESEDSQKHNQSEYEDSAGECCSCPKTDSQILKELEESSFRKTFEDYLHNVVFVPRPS
# T1 sequence (P06213 763-1382 partner limits assumed): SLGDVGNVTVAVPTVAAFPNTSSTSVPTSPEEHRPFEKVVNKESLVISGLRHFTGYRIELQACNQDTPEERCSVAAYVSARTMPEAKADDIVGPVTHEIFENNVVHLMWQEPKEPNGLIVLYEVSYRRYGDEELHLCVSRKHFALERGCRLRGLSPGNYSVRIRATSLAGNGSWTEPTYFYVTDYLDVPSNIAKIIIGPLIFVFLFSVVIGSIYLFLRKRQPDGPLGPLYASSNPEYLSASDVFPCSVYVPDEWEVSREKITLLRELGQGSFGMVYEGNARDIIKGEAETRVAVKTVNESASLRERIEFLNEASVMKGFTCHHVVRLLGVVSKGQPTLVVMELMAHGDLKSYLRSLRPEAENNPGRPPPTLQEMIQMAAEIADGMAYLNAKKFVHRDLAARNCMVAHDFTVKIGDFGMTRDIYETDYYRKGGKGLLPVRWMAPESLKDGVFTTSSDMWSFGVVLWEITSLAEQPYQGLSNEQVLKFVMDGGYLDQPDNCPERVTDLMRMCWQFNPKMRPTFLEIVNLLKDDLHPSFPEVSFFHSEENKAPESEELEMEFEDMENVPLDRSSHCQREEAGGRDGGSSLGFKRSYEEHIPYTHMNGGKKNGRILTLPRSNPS
# Procedure: (§1) The affinity of the acylated insulin analogues of this invention for the human insulin receptor is determined by a SPA assay (Scintillation Proximity Assay) microtiterplate antibody capture assay. SPA-PVT antibody-binding beads, anti-mouse reagent (Amersham Biosciences, Cat No. PRNQ0017) are mixed with 25 ml of binding buffer (100 mM HEPES pH 7.8; 100 mM sodium chloride, 10 mM MgSO4, 0.025% Tween-20). Reagent mix for a single Packard Optiplate (Packard No. 6005190) is composed of 2.4 μl of a 1:5000 diluted purified recombinant human insulin receptor (either with or without exon 11), an amount of a stock solution of A14Tyr[^125I]-human insulin corresponding to 5000 cpm per 100 μl of reagent mix, 12 μl of a 1:1000 dilution of F12 antibody, 3 ml of SPA-beads and binding buffer to a total of 12 ml. A total of 100 μl reagent mix is then added to each well in the Packard Optiplate and a dilution series of the insulin derivative is made in the Optiplate from appropriate samples. The samples are then incubated for 16 hours while gently shaken. The phases are the then separated by centrifugation for 1 min and the plates counted in a Topcounter. The binding data were fitted using the nonlinear regression algorithm in the GraphPad Prism 2.01 (GraphPad Software, San Diego, Calif.) and affinities are expressed relative (in percentage (%)) to the affinity of human insulin.
# [2] = target: T1, human insulin receptor (IR-A); conditions: relative to affinity of human insulin; […] HSA in binding buffer
# Procedure: as §1
# A related assay is also used wherein the binding buffer also contains 1.5% HSA in order to mimic physiological conditions
# [3] = test system: duodenum lumen enzymes; conditions: pH 7.4
# Procedure: Degradation of insulin analogs using duodenum lumen enzymes (prepared by filtration of duodenum lumen content) from SPD rats. The assay is performed by a robot in a 96 well plate (2 ml) with 16 wells available for insulin analogs and standards. Insulin analogs ˜15 μM are incubated with duodenum enzymes in 100 mM Hepes, pH=7.4 at 37° C., samples are taken after 1, 15, 30, 60, 120 and 240 min and reaction quenched by addition of TFA. Intact insulin analogs at each point are determined by RP-HPLC. Degradation half time is determined by exponential fitting of the data and normalized to half time determined for the reference insulins, A14E, B25H, desB30 human insulin or human insulin in each assay. The amount of enzymes added for the degradation is such that the half time for degradation of the reference insulin is between 60 min and 180 min.
# [4] = Chemical stability of insulin analogues formulated in lipid formulations (UPLC purity, SEC HMWP); format: physicochemical; conditions: lipid formulation, 25° C.
# Procedure: Chemical stability of insulin analogues formulated in lipid formulations was assessed according to the protocol described here.
# Composition of the formulation: […]
# Insulin to be tested (75 μM)
# The insulin to be tested (lyophilised from pH 7.5) is dissolved in propylenglycol in the dark for 16 hours. Diglycerol caprylate is added ad the mixture is stirred. Tween 20 is added and the mixture is stirred for 5 minutes. The mixture is gently agitated until it is homogeneous.
# Extraction-mix: 1-butanol+0.1% (w/w) Tween80, 0.1M Na2HPO4/NaH2PO4 pH 7.0 • 1. The formulations are allowed to reach room temperature. • 2. To each Eppendorf tube 20 μl of the formulations are added. • 3. Add 490 μl 1-butanol followed by addition of 990 μl of the phosphate buffer. Vortex and incubate at RT for 30 min. • 4. Vortex again and centrifuge at RT at 14000 rpm for 20 min. Analyse the bottom aqueous phase for purity and HMWP formation.
# Alternatively another extraction method can be used: • 1. The formulations are allowed to reach room temperature. • 2. To each Eppendorf tube 50 μl of the formulations are added. • 3. Add 950 μl of extraction buffer. Vortex well. Immediately after, load 800 μl (2×400 μl) for purification on the spin column. See spin protocol below. Ion Exchange on Q Spin Columns from Sartorius
# (In the following all spin steps are for 5 min at 2000×g.) • 1. Apply 400 μl equilibration buffer to each spin column, and spin. Discard the flow-through. • 2. Apply 2×400 μl of each extracted sample. Spin the column between each application. Discard the flow-through. • 3. Apply 400 μl washing buffer to wash each spin column, and spin. Discard the wash. • 4. Apply 400 μl elution buffer to each spin column, and spin. Analyse the elution for purity and HMWP formation
# Column: Waters BEH Shield RP18 UPLC column (2.1×100 mm, 1.7 μm)
# Buffer A: 0.09M di-ammonium hydrogen phosphate pH 3.0, 10% (v/v) acetonitrile
# Buffer B: 90% acetonitrile.
# Column: Waters Insulin HMWP SEC column
# Buffer: 500 mM NaCl, 10 mM NaH2PO4, 5 mM H3PO4, 50% (v/v) 2-propanol
Substance,Relative IR-A affinity (@ 0% HSA) (%) [1],Relative IR-A affinity (@ […] HSA) (%)e [2],"Duodenum degradation. Relative stability vs. A14E, B25H, desB30 human insulin [3]",HMWP formed (%) 2 weeks [4],Impurities formed (%) 2 weeks [4],HMWP formed (%) 4 weeks ([4]; 4 weeks),Impurities formed (%) 4 weeks ([4]; 4 weeks)
"I: {Phe(Nα-CONH2)}-VNQHLCGSHLVEALYLVCGERGFFYPK([AEEA-AEEA-γGlu-C20 diacid]) / II: Hydantoyl-IVEQCCTSICSLEQLENYCN (disulfide I:6-II:6, I:18-II:19, II:5-II:10) [Example 29, A1G(N^αcarbamoyl), A14E, B1F(N^αcarbamoyl), desB27, B29K(N^εeicosanedioyl-gGlu-2xOEG), desB30 human insulin]",2.6%,0.20%,3.0,–,–,–,–
"A1(N^αDiglycolyl), A14E, B1(N^αdiglycolyl), B25H, desB27, B29K(N^εoctadecanedioyl-gGlu-2xOEG), desB30 human insulin [Example 59]",–,–,–,0.1%,2.4%,–,–
"I: {Phe(Nα-CONH2)}-VNQHLCGSHLVEALYLVCGERGFFYPK([γGlu-C16 diacid]) / II: Hydantoyl-IVEQCCTSICSLEQLENYCN (disulfide I:6-II:6, I:18-II:19, II:5-II:10) [Example 19, A1G(N(alpha)carbamoyl), A14E, B1F(N(alpha)carbamoyl), desB27, B29K(N(eps)hexadecanedioyl-gGlu), desB30 human insulin]",5.0%,0.14%,3.0,–,–,–,–
"I: X1-VNQHLCGSHLVEALYLVCGERGFHYTPK([AEEA-AEEA-γGlu-C18 diacid]) / II: X2-IVEQCCTSICSLEQLENYCN (disulfide I:6-II:6, I:18-II:19, II:5-II:10) [Example 2, A1(N^α,N^α-Diethyl), A14E, B1(N^α, N^α-diethyl), B25H, B29K(N^εOctadecanedioyl-gGlu-2xOEG), desB30 human insulin]",1.7%,0.05%,0.8,0.0%,1.7%,0.1%,3.2%
"I: {Phe(Nα-CONH2)}-VNQHLCGSHLVEALYLVCGERGFFYPK([γGlu-C20 diacid]) / II: Hydantoyl-IVEQCCTSICSLEQLENYCN (disulfide I:6-II:6, I:18-II:19, II:5-II:10) [Example 21]",1.3%,0.07%,6.2,–,–,–,–
"I: {Phe(Nα-CONH2)}-VNQHLCGSHLVEALYLVCGERGFHYTPK([γGlu-C20 diacid]) / II: Hydantoyl-IVEQCCTSICSLEQLENYCN (disulfide I:6-II:6, I:18-II:19, II:5-II:10) [Example 14, A1(N^αCarbamoyl), A14E, B1(N^αCarbamoyl), B25H, B29K(Feicosanedioyl-gGlu), desB30 human insulin]",0.2%,0.00%,0.9,–,–,–,–
"I: {Phe(Nα-CONH2)}-VNQHLCGSHLVEALYLVCGERGFFYPK([AEEA-AEEA-γGlu-C16 diacid]) / II: Hydantoyl-IVEQCCTSICSLEQLENYCN (disulfide I:6-II:6, I:18-II:19, II:5-II:10) [Example 20]",4.7%,0.48%,1.8,–,–,–,–
"I: {Phe(Nα-CONH2)}-VNQHLCGSHLVEALHLVCGERGFFYPK([AEEA-AEEA-γGlu-C20 diacid]) / II: Hydantoyl-IVEQCCTSICSLEQLENYCN (disulfide I:6-II:6, I:18-II:19, II:5-II:10) [Example 30, A1G(N^αcarbamoyl), A14E, B1F(N^αcarbamoyl), B16H, desB27, B29K(N^εeicosanedioyl-gGlu-2xOEG), desB30 human insulin]",–,–,4.9,–,–,–,–
"I: NMe2Phe-VNQHLCGSHLVEALYLVCGERGFHYPK([γGlu-C18 diacid]) / II: Me2Gly-IVEQCCTSICSLEQLENYCN (disulfide I:6-II:6, I:18-II:19, II:5-II:10) [Example 4, A1(N^α, N^α-Dimethyl), A14E, B1(N^α, N^α-dimethyl), B25H, desB27, B29K(N^εoctadecanedioyl-gGlu), desB30 human insulin]",1.7%,0.03%,8.6,–,–,–,–
"I: {Phe(Nα-CONH2)}-VNQHLCGSHLVEALYLVCGERGFHYPK([AEEA-AEEA-γGlu-C18 diacid]) / II: Hydantoyl-IVEQCCTSICSLEQLENYCN (disulfide I:6-II:6, I:18-II:19, II:5-II:10) [Example 18, A1(N^αCarbamoyl), A14E, B1(N^αCarbamoyl), B25H, desB27, B29K(N^εoctadecandioyl-gGlu-2xOEG), desB30 human insulin]",0.4%,0.04%,5.6,–,–,–,–
"I: NMe2Phe-VNQHLCGSHLVEALYLVCGERGFHYPK([γGlu-C16 diacid]) / II: Me2Gly-IVEQCCTSICSLEQLENYCN (disulfide I:6-II:6, I:18-II:19, II:5-II:10) [Example 8, A1G(N^α,N^α-Dimethyl), A14E, B1F(N^α,N^α-dimethyl), B25H, desB27, B29K(N^εhexadecanedioyl-gGlu), desB30 human insulin]",2.7%,0.18%,6.8,–,–,–,–
"I: {Phe(Nα-CONH2)}-VNQHLCGSHLVEALYLVCGERGFHYTPK([γGlu-C16 diacid]) / II: Hydantoyl-IVEQCCTSICSLEQLENYCN (disulfide I:6-II:6, I:18-II:19, II:5-II:10) [Example 13, A1(N^αCarbamoyl), A14E, B1(N^αCarbamoyl), B25H, B29K(N^εhexadecanedioyl-gGlu), desB30 human insulin]",0.3%,0.02%,1.5,–,–,–,–
"I: NMe2Phe-VNQHLCGSHLVEALHLVCGERGFHYTPK([AEEA-AEEA-γGlu-C20 diacid]) / II: Me2Gly-IVEQCCTSICSLEQLENYCN (disulfide I:6-II:6, I:18-II:19, II:5-II:10) [Example 7, A1(N^α,N^α-Dimethyl), A14E, B1(NP,N^α-dimethyl), B16H, B25H, B29K(N^εeicosanedioyl-gGlu-2xOEG), desB30 human insulin]",0.5%,0.03%,0.4,–,–,–,–
"I: {Phe(Nα-CONH2)}-VNQHLCGSHLVEALYLVCGERGFFYPK([γGlu-C18 diacid]) / II: Hydantoyl-IVEQCCTSICSLEQLENYCN (disulfide I:6-II:6, I:18-II:19, II:5-II:10) [Example 23, A1(N^αCarbamoyl), A14E, B1(N^αCarbamoyl), desB27, B29K(N^εoctadecanedioyl-gGlu), desB30 human insulin]",2.7%,0.04%,6.6,–,–,–,–
